Source: patent US11787839B2, “Targeting α2δ-1-bound glutamate receptors for treating diseases and disorders” (Board of Regents, The University of Texas System, priority 2017, dated 2023)

What was measured:
[1] = molecular target: T1, NMDARs of spinally projecting PVN neurons (Rattus norvegicus, UniProt P35439+Q00959+Q00960); assay: Recordings of spinally projecting PVN neurons in rat brain slices (Ang II); format: cell-based; conditions: losartan 2 μmol/L, pregabalin 20 μmol/L, peptides 1 μmol/L
T1 construct: from tissue; host or cells: rat hypothalamic slices containing the PVN (Sprague-Dawley, WKY, SHR) and synaptosomes made from them
From the text: Retrograde labeling of spinally projecting PVN neurons: Rats or mice were anesthetized with 2-3% isoflurane, and their spinal cords at the T1-T4 level were exposed through dorsal laminectomy. A fluorescent microsphere suspension (FluoSpheres, 0.04 μm; Molecular Probes, Invitrogen, Eugene, Oreg.) was pressure ejected (Nanoject II Microinjectors, Drummond Scientific Company, Broomall, Pa.) bilaterally into the IML region of the spinal cord in six separate 50-nl injections using a glass micropipette (tip diameter, 20-30 μm). […] The wound was closed with sutures after injection. Animals were returned to their cages for 4-7 days, which was sufficient time to permit the tracer to be retrogradely transported to the PVN. The animals were inspected daily for motor activity, signs of infection, and food and water intake.
Brain slice preparation: Four to seven days after fluorescent tracer injection, the animals were anesthetized with isoflurane and rapidly decapitated. […] Coronal slices (thickness, 300 μm) containing the PVN were cut from the tissue block in the ice-cold aCSF. […] The brain slices were placed in a glass-bottom chamber and continuously perfused with aCSF at 3.0 ml/min at 34° C. maintained by an inline solution heater and temperature controller.
The labeled PVN neurons were briefly identified with the aid of epifluorescence illumination, and whole-cell recordings from labeled PVN neurons were performed under differential interference contrast optics on an upright microscope (BX50 WI; Olympus Optical, Tokyo, Japan). Recordings of postsynaptic currents began 5 min after the whole-cell access was established and the current reached a steady state.
Signals were processed with an […] amplifier (Axon Instruments, Foster City, Calif.). A liquid junction potential of 15 mV (for the potassium gluconate pipette solution) was corrected during off-line analysis.
Postsynaptic NMDAR currents were elicited by puff application of 100 μmol/L NMDA to the recorded neuron using a positive pressure system (4 p.s.i., 50 ms; Toohey Company, Fairfield, N.J.). The tip of the puff pipette was placed 150 μm from the recorded neuron. […] The NMDAR current data presented in the manuscript were the average of 3 consecutive currents elicited by repeated puff NMDA. The neuron was discarded if the current was not stable.
Ang II, losartan, and NMDA were obtained from Sigma (St. Louis, Mo.). The α2δ-1Tat peptide and scrambled control peptide were synthesized by Bio Basic Inc. (Markham, Ontario, Canada) and validated by liquid chromatography and mass spectrometry. […] All drugs were prepared immediately before the experiments and applied to the slice chamber. The brain slices were first pretreated with Ang II, losartan, α2δ-1Tat peptide, or control peptide in the slice incubation chamber before recording. For electrophysiological recording, the treatment agents were immediately removed and the brain slice transferred to a separate recording chamber.

[2] = tested on: rats treated with the Cacna2d1 vector; assay: Withdrawal thresholds in rats overexpressing Cacna2d1 (lentiviral vector); format: in vivo, rat; conditions: Cacna2d1 vector rats; AP5, peptide, gabapentin intrathecal; memantine systemic
morphine-treated rats = assay: Opioid-induced hyperalgesia and analgesic tolerance in rats
[3] = tested on: presynaptic NMDARs of spinal dorsal horn neurons; assay: Spinal cord slice recordings, morphine-treated WT and Cacna2d1 KO mice; conditions: WT mice
WT and Cacna2d1 KO mice = assay: Opioid-induced hyperalgesia and analgesic tolerance in WT and Cacna2d1 KO mice
paclitaxel-treated rats = assay: Paclitaxel-induced pain hypersensitivity in rats; format: in vivo, rat; conditions: intrathecal 5 μg pregabalin, 1 μg peptides
Method: To induce neuropathic pain, rats and mice were intraperitoneally injected with paclitaxel (2 mg/kg; TEVA Pharmaceuticals, North Wales, Pa.) every 2 days for a total of 4 injections (days 1, 3, 5 and 7; total dose, 8 mg/kg), as described previously (Polomano et al., 2001). Animals in the control group were intraperitoneally injected with the vehicle (Cremophor EL/ethanol, 1:1) on the same 4 days. The presence of tactile allodynia was confirmed 10 to 12 days after drug treatment. Intrathecal catheters were implanted in some paclitaxel-treated rats during isoflurane-induced anesthesia. Briefly, a small puncture was made in the atlanto-occipital membrane of the cisterna magna and inserted a PE-10 catheter with the caudal tip reaching the lumbar enlargement of the spinal cord (Chen et al., 2014a; Xie et al., 2016).
Behavioral assessment of nociception: To measure tactile allodynia, mice or rats were individually placed on a mesh floor within a suspended chamber. […]
To quantify the mechanical nociceptive threshold in rats, the paw pressure (Randall-Selitto) test was conducted on the left hindpaw using an analgesiometer (Ugo Basile, Varese, Italy). […] When the rat withdrew its paw or vocalized, the pedal was immediately released, and the withdrawal threshold was recorded (Chen et al., 2014a). […]
To assess the thermal sensitivity of rats, the were placed individually on the glass surface of a thermal testing apparatus (IITC Life Sciences, Woodland Hills, Calif.). […] The paw withdrawal latency was recorded with a timer, and the hindpaw was tested twice to obtain an average time. […] After the threshold temperature was recorded, the mice were immediately removed from the plate. The heat threshold measurement was repeated 30 min later, and the average of the 2 recorded temperatures was considered as the heat threshold. The cold threshold was measured by cooling the plate from 30° C. at a rate of 6° C./min until nocifensive behaviors were observed. […]

[4] = molecular target: presynaptic NMDARs of spinal lamina II neurons (Rattus norvegicus, UniProt P35439+Q00959+Q00960)
[5] = daily morphine in vehicle- or control peptide-treated rats
[6] = WT mice, morphine 10 mg/kg twice a day, 8 days
[7] = paclitaxel-treated rats, AP5 50 μM, pregabalin 20 μM, peptides 1 μM
[8] = vehicle-treated rats, AP5 50 μM, pregabalin 20 μM, peptides 1 μM

Sequence of presynaptic NMDARs of spinal lamina II neurons (Q00959 20-1464 limits assumed, other chains not shown): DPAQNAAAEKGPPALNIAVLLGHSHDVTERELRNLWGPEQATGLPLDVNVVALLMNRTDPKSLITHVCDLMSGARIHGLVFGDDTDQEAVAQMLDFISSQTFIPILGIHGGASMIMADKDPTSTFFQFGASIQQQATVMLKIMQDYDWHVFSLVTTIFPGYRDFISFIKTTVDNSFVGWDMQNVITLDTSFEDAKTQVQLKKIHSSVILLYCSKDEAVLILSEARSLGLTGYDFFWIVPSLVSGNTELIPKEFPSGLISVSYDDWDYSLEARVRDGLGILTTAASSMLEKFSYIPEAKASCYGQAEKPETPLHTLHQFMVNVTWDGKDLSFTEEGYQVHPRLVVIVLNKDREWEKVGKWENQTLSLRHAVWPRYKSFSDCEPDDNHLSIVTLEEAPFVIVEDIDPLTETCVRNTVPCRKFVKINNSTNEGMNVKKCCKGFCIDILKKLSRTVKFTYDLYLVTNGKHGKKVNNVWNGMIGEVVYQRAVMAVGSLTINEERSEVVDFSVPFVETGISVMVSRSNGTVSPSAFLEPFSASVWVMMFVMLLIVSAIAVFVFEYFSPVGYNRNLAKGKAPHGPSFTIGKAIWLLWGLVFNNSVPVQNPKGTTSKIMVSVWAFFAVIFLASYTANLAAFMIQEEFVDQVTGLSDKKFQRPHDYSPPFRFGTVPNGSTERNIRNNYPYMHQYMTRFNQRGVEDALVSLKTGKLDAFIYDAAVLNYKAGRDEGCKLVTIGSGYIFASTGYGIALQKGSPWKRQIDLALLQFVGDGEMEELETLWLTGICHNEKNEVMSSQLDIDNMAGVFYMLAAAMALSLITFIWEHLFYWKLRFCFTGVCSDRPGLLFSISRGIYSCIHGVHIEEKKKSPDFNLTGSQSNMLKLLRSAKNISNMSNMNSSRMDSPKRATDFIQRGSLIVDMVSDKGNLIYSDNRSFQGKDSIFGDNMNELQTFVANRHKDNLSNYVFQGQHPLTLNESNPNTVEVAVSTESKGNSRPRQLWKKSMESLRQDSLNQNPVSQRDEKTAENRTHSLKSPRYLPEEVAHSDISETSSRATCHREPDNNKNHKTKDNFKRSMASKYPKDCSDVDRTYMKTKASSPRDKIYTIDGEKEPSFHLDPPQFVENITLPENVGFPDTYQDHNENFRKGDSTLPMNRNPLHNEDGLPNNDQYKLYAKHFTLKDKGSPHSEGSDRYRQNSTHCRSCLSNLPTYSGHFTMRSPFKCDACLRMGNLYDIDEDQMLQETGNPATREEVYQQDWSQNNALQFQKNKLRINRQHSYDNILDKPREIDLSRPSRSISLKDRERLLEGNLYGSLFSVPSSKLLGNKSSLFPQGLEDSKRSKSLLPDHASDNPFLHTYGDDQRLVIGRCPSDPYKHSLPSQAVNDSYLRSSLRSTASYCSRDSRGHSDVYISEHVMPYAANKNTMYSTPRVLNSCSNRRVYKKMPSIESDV
Sequence of presynaptic NMDARs of spinal lamina II neurons (Q00960 27-1482, other chains not shown): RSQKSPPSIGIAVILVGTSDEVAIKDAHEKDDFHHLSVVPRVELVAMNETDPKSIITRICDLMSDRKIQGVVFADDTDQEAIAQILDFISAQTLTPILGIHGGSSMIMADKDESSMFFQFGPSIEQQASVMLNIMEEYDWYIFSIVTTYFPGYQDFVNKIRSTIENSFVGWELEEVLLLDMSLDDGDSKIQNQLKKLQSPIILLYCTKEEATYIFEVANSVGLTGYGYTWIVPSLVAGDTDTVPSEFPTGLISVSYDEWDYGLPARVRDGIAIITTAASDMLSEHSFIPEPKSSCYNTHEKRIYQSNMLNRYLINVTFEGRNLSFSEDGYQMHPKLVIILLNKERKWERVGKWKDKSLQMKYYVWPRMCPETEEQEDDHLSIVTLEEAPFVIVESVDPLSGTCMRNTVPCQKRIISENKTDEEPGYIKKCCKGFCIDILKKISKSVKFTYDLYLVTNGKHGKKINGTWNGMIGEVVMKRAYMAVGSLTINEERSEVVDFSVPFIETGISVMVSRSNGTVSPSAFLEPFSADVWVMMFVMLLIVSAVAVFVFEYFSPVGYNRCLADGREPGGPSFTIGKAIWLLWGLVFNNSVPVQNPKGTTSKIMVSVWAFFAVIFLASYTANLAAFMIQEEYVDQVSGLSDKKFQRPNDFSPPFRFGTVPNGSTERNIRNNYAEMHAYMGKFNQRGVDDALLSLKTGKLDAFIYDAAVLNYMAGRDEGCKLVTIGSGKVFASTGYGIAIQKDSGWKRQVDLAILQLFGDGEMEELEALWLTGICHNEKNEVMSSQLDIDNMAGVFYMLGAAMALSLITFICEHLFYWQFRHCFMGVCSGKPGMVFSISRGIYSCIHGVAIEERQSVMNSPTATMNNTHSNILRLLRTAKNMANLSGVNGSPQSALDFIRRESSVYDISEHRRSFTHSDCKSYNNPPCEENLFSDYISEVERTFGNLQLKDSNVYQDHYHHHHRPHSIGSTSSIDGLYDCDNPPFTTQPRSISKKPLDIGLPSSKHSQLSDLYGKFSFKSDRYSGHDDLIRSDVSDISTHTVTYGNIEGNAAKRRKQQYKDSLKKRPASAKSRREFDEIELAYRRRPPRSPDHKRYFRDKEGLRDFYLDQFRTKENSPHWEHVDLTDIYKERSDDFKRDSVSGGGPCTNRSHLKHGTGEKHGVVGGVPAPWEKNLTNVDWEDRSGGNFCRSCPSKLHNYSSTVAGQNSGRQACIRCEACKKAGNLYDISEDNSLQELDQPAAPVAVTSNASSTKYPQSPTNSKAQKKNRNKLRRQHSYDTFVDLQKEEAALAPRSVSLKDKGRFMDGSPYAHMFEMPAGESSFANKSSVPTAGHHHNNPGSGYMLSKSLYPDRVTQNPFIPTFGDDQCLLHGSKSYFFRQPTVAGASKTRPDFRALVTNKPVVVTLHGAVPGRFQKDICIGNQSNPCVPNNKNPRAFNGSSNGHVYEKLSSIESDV

SMILES: CCCCc1nc(Cl)c(CO)n1Cc1ccc(-c2ccccc2-c2nn[nH]n2)cc1 [losartan]
- effect of Ang II on mEPSC frequency in pretreated slices [1]: completely blocked
- effect of Ang II on puff NMDA currents in pretreated slices ([1]; 30 min): abolished

SMILES: CC12CC3CC(C)(C1)CC(N)(C3)C2 [memantine]
- pain hypersensitivity induced by Cacna2d1 overexpression (tactile and pressure withdrawal thresholds) [2]: readily reversed

SMILES: CN1CC[C@]23c4c5ccc(O)c4O[C@H]2[C@@H](O)C=C[C@H]3[C@H]1C5.O=S(=O)(O)O [morphine, morphine sulfate]
- effect of 5 mg/kg morphine on the withdrawal thresholds (morphine-treated rats; by day 6, vehicle- or control peptide-treated rats): failed to produce a significant effect
- anti-nociceptive effect of morphine (morphine-treated rats; [5]): gradual decrease
- baseline withdrawal thresholds (mechanical and thermal hyperalgesia) (morphine-treated rats; [5]): gradual reduction
- amplitude of monosynaptic EPSCs evoked from the dorsal root ([3]; chronic morphine): markedly increased
- NMDAR-mediated frequency of mEPSCs of spinal dorsal horn neurons ([3]; morphine 10 mg/kg twice a day for 8 day): significantly increased
- anti-nociceptive effect of morphine at the end of 8-day treatment (WT and Cacna2d1 KO mice; Cacna2d1 KO mice): largely preserved
- baseline withdrawal threshold (WT and Cacna2d1 KO mice; Cacna2d1 KO mice, daily morphine): did not significantly affect
- anti-nociceptive effect of morphine (WT and Cacna2d1 KO mice; [6]): diminished
- baseline withdrawal thresholds to noxious pressure and heat (WT and Cacna2d1 KO mice; [6]): gradually reduced

SMILES: CC(C)C[C@H](CN)CC(=O)O [pregabalin]
- paclitaxel-induced pain hypersensitivity (tactile allodynia, mechanical and thermal hyperalgesia) (paclitaxel-treated rats): readily reversed
- reduced PPR of evoked EPSCs ([4]; paclitaxel-treated rats): completely normalized
- increased amplitude of evoked monosynaptic EPSCs [4, 7]: returned the amplitude of evoked monosynaptic EPSCs of lamina II neurons to the baseline level
- increased frequency of mEPSCs of lamina II neurons [4, 7]: completely normalized
- PPR of evoked EPSCs ([4]; vehicle-treated rats): had no effect
- amplitude of evoked monosynaptic EPSCs [4, 8]: had no effect
- frequency of mEPSCs of lamina II neurons [4, 8]: had no effect
